Paper PMC4273943 (Molecular microbiology, 2011)

Target: CRP homolog RC1_3788 (CgrA) (Rhodospirillum centenum, UniProt B6IXV7)
Assay: isothermal titration calorimetry
Assay type: binding

Structure (SMILES): Nc1nc2c(ncn2[C@@H]2O[C@@H]3COP(=O)(O)O[C@H]3[C@H]2O)c(=O)[nH]1 [cGMP]
- Kd: 38.5 nM
